The test system of assay [1] is Mouse melanocytes (Mel-Ab cells). As to the kind of experiment: Melanin production inhibitory effect using mouse melanocytes (Dooley method). It is filed as cell-based. As to conditions: 10 ppm of test substance for 3 days, absorbance at 400 nm.
For assay [2], the system named is human skin. As to the kind of experiment: Whitening effect on human skin after UVB-induced blackness. Type of assay: in vivo. As to conditions: 10 weeks, colorimeter. The source says:
An opaque tape having a perforated hole of a 1.5 cm-diameter was attached to the upper arm of each of 12 healthy men. Then, UV rays (UVB) were irradiated to each of the subjects at a dose 1.5-2 times higher than the minimal erythema dose, thus inducing skin's blackness.
After the UV irradiation, a 1 wt % solution of each of the test samples (1,3-butyleneglycol: ethanol=7:3, as a vehicle) was applied to the skin of each subject. As negative and positive control groups, a 3 wt % solution of each of […] was applied to the skin of each subject. […] The skin color was measured with a colorimeter (Minolta, Japan) at a 1-week interval. Then, the difference (ΔL*) in skin color between the time point of application and the time point of completion of application of each sample was calculated according to the following equation 2, and the calculation results are shown in Table 2 below. Meanwhile, the whitening effect of each sample was evaluated by comparing ΔL* between the site applied with each sample and the control site.

Where [3] appears, read: 1 wt % solution in 1,3-butyleneglycol:ethanol=7:3 applied to UVB-irradiated upper arm of 12 healthy men.

Regarding “20-O-β-D-glucopyranosyl-20(S)-protopanaxatriol [Example 2]”, in assay [1], the “Melanin production inhibitory rate (%)” value stood at 33.6%. Moreover, the “Lightless (ΔL*) of skin color” value in assay [2] (setting [3]) came out at 1.67 ± 0.17.

Take “20-O-β-D-glucopyranosyl-20(S)-protopanaxatriol [Example 3]”: the “Melanin production inhibitory rate (%)” value in assay [1] came to 34.2%. Moreover, the “Lightless (ΔL*) of skin color” value in assay [2] (setting [3]) is recorded as 1.71 ± 0.13.

“20-O-β-D-glucopyranosyl-20(S)-protopanaxatriol [Example 1]”: in assay [1], the “Melanin production inhibitory rate (%)” value was 35.1%. Moreover, the “Lightless (ΔL*) of skin color” value in assay [2] (setting [3]) worked out at 1.60 ± 0.13.

For `O=c1cc(CO)occ1O` [Kojic acid, reference compound], the inhibition at 10 ppm in assay [1] (Mus musculus, 72 h, read-out: Melanin production inhibitory rate (%)) came out at 30.5%. Also, the “Lightless (ΔL*) of skin color” value in assay [2] (3 wt % solution (positive control) applied to UVB-irradiated upper arm of 12 healthy men) is 1.56 ± 0.11.

For “20-O-β-D-glucopyranosyl-20(S)-protopanaxatriol [Example 4]”, in assay [1], the “Melanin production inhibitory rate (%)” value was found to be 34.9%. For the same compound, in assay [2] (setting [3]), the “Lightless (ΔL*) of skin color” value is recorded as 1.64 ± 0.21.

Regarding “20-O-β-D-glucopyranosyl-20(S)-protopanaxatriol [ginsenoside F1]”, the “Lightless (ΔL*) of skin color” value in assay [2] (setting [3]) was “higher than 1.6”.
